We go through 28 compounds from patent US9260439B2, “Dihydropyrrolopyrimidine derivatives” (PFIZER INC., priority 2014, dated 2016).

By Ki is commonly meant a measure of affinity in units of concentration, obtained from inhibition or displacement. A lower Ki goes with higher affinity.

The target in this experiment is truncated PI3Kα (p110α/iSH2 p85α) (Homo sapiens (Human), UniProt P42336). Briefly: PI3KA_Act fluorescence polarization kinase assay (Ki). Format: biochemical. The note with it: 1 mM ATP. From the text: 2) p110α-iSH2 p85α Complex (Full Length p110α and p85α iSH2)(“PI3KA_Act”)
truncated PI3Kα (p110α/iSH2 p85α), sequence (P42336 whole entry, the tested form may be a part): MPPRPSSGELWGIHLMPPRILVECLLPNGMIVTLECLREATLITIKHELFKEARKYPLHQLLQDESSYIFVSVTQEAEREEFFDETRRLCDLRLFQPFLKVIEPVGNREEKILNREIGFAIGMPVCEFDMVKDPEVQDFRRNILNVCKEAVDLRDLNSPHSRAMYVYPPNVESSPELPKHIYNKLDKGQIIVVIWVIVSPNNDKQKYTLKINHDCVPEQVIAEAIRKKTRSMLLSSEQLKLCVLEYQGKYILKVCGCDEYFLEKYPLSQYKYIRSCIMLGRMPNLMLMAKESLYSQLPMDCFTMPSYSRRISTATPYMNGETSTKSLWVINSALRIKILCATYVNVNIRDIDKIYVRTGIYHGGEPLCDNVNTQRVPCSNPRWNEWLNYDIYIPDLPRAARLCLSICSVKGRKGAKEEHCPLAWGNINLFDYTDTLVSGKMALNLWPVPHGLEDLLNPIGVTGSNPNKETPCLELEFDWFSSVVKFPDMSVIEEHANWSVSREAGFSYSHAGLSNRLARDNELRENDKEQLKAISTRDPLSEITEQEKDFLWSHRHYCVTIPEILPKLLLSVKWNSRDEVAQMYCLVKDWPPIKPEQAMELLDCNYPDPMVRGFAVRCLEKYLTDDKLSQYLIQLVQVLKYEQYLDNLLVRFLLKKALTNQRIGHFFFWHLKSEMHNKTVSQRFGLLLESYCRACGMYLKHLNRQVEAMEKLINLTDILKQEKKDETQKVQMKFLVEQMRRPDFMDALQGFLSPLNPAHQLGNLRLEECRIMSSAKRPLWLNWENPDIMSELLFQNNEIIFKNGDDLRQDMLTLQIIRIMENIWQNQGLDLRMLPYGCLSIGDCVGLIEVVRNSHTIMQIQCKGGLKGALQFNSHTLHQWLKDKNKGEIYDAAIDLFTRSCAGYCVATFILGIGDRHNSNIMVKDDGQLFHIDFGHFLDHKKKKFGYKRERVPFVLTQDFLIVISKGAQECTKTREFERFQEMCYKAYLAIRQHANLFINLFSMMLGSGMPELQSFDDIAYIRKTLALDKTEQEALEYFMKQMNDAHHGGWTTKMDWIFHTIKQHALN
Genes encoding for full length p110α and p85α nSH-iSH2=niSH2 (p85a aminoacids 322-600) subunits of PI3Kα complex were subcloned from existing constructs into pFASTBAC Dual vector (Life Technologies, Carlsbad, Calif.) using standard cloning procedures. Gene encoding p110α subunit was subcloned into polyhedrine promoter while gene encoding p85α niSH2 domains was subcloned into p10 promoter. Additionally, Human Rhinovirus 3C Protease (“HRV 3C”) site was introduced between nSH2 and iSH2, replacing aminoacids 431-438 of p85α with […] HRV 3C recognition sequence, using standard QuickChange mutagenesis protocol (Agilent Technologies, CA). Recombinant baculovirus was generated using Bac-to-Bac protocol (Life Technologies, Carlsbad, Calif.). Large scale expression was conducted in Sf21 (Life Technologies, Carlsbad, Calif.) cells at a multiplicity of infection (“MOI”)=1 for 48 hours. Cells were lyzed in 50 mM Tris pH 8.0, 250 mM NaCl, 5% glycerol, 0.25 mM TCEP, and 20 mM imidazole. The p110α-niSH2 p85α complex was purified from clarified supernatant using Immobilized Metalo Affinity Chromatography (“IMAC”). The protein was eluted from the column using 50 mM Tris pH 8.0, 200 mM NaCl, 0.25 mM TCEP, and 200 mM imidazole. Following elution p110α-niSH2 p85α complex was dialyzed against 4 liters of 50 mM Tris pH 8.0, 200 mM NaCl, 0.25 mM TCEP, and 40 mM imidazole in the presence of PreScission Protease (1:70 molar ratio of Protease to Protein) and TEV protease (1:40 molar ratio protease to protein) for 16 hours at 4° C. The protein was further purified using reverse IMAC to remove cleaved histidine tag and contaminants captured during initial IMAC purification. The mixture of p110α-iSH2 p85α complex and cleaved nSH2 was recovered in reverse IMAC 40 mM imidazole flow through and 60 mM imidazole wash fractions. Those fractions were pulled together and loaded on Superdex 200 26/60 SEC column equilibrated in 25 mM Tris, pH 8.0, 100 mM NaCl, 2% glycerol, and 2 mM TCEP. Following SEC, chromatography peak fractions containing p110α-iSH2 p85α complex were pulled and concentrated to 4.3 mg/mL. Purity and integrity of the complex was confirmed using LCMS, analytical SEC and SDS-PAGE (sodium dodecyl sulfate polyacrylamide gel electrophoresis) analysis.
The biochemical assays of kinase activity of full-length PI3Kα (full-length p110α/p85a) or truncated PI3Kα (p110α/iSH2 p85a) were conducted using a fluorescence polarization format similar to the procedure of Yuan J., et al., (2011) “PF-04691502, a Potent and Selective Oral Inhibitor of PI3K and mTOR Kinases with Antitumor Activity”, Mol Cancer Ther. 10, 2189-2199. The enzymatic reactions were conducted in 50 μL volumes in 96-well plates. The reactions contained human recombinant PI3Kα (2 nM full-length p110α/p85α or 0.5 nM p110α/iSH2 p85) and 30 μM phosphatidylinositol 4,5-bisphosphate (“PIP2”) (Cayman Chemical Company, Ann Arbor, Mich.) and were sonicated for 1 minute prior to adding PI3Kα enzyme (PI3KA_Act or PI3KA_FL), DMSO or test compound (12-point 3-fold serial dilution, 3 μM top dose, 2° A) DMSO final concentration), 5 mM MgCl2, 50 mM HEPES pH 7.4, 150 mM NaCl, 1 mM DTT ((2S,3S)-1,4-bis(sulfanyl)butane-2,3-diol), and 0.05% 3-[(3-cholamidopropyl)dimethylammonio]-1-propanesulfonate (“CHAPS”). […] The reactions were incubated for 30 min at room temperature, stopped with EDTA pH 8 (10 mM final concentration). In a detection plate, 15 μL of detector/probe mixture, containing 480 nM GST-Grp1 PH domain protein (University of Dundee, Dundee, UK) and 12 nM carboxytetramethylrhodamine (“TAMRA”)-tagged fluorescent phosphatidylinositol (3,4,5)-triphosphate (“PIP3”) (Echelon Biosciences, Inc., Salt Lake City, Utah) in assay buffer, was mixed with 15 μL of kinase reaction mixture. The plate was shaken for 30 minutes and fluorescence polarization values were measured on an LJL Analyst HT plate reader (Molecular Devices, Sunnyvale, Calif.). […]
On the technique in general: In fluorescence polarisation assays a small probe gives low polarisation when free and higher when bound to something large.

Each structure is given as a SMILES string. Structures can show the parent of a compound that is named as a salt.

For `CC1(N2CCc3c(-c4cnc(N)nc4)nc(N4CCOCC4)nc32)CCCNC1` (single isomer, unassigned) [Example 432, 5-[7-(3-methylpiperidin-3-yl)-2-(morpholin-4-yl)-6,7-dihydro-5H-pyrrolo[2,3-d]pyrimidin-4-yl]pyrimidin-2-amine hydrochloride], the “PI3KA_Act Ki” value (hydrochloride) was determined as 11.739 nM. Take `CS(=O)(=O)N1C[C@H]2C[C@@H]1[C@@H]2N1CCc2c(-c3cnc(N)nc3)nc(N3CCOCC3)nc21` (single isomer, unassigned) [Example 439]: the affinity corresponds to a Ki of 1.51 nM. Still for that read-out and setting: the result for `CS(=O)(=O)N1C[C@H]2C[C@@H]1[C@@H]2N1CCc2c(-c3cnc(N)nc3)nc(N3CCOCC3)nc21` (single isomer, unassigned) [Example 440] reads 0.178 nM. On to `C[C@H]1COCCN1c1nc(-c2cnc(N)nc2)c2c(n1)N([C@@]1(C)CCN(C(=O)C3(N)CCOC3)C1)CC2` (single isomer, unassigned) [Example 502, hydrochloride], for which, under “hydrochloride”, the “PI3KA_Act Ki” value is listed as 0.064 nM. With `C[C@H]1COCCN1c1nc(-c2cnc(N)nc2)c2c(n1)N([C@@]1(C)CCN(C(=O)C3(N)CCOC3)C1)CC2` (single isomer, unassigned) [Example 503, hydrochloride], the “PI3KA_Act Ki” value (hydrochloride) amounted to 0.091 nM. As to `C[C@H]1COCCN1c1nc(-c2cnc(N)nc2)c2c(n1)N([C@@]1(C)CCN(C3CCNC3=O)C1)CC2` (single isomer, unassigned) [Example 514], the “PI3KA_Act Ki” value is on record as 0.068 nM.

Regarding `C[C@H]1COCCN1c1nc(-c2cnc(N)nc2)c2c(n1)N([C@@]1(C)CCN(C3CCNC3=O)C1)CC2` (single isomer, unassigned) [Example 515], the “PI3KA_Act Ki” value is recorded as <0.081 nM.

Take `C[C@H]1COCCN1c1nc(-c2cnc(N)nc2)c2c(n1)N(C1(C)CCCNC1)CC2` (single isomer, unassigned) [Example 517, hydrochloride]: for the setting “hydrochloride”, the “PI3KA_Act Ki” value stood at 9.319 nM.

As to `C[C@H]1COCCN1c1nc(-c2cnc(N)nc2)c2c(n1)N(C1(C)CCCNC1)CC2` (single isomer, unassigned) [Example 518, hydrochloride], for the setting “hydrochloride”, the “PI3KA_Act Ki” value is 11.285 nM. In the case of `CNC(=O)N1CC[C@@](C)(N2CCc3c(-c4cnc(N)nc4)nc(N4CCOCC4)nc32)C1` [Example 2, (3R)-3-[4-(2-aminopyrimidin-5-yl)-2-(morpholin-4-yl)-5,6-dihydro-7H-pyrrolo[2,3-d]pyrimidin-7-yl]-N,3-dimethylpyrrolidine-1-carboxamide], the “PI3KA_Act Ki” value came out at 0.160 nM. The same measure, in the same setting: the result for `Nc1ncc(-c2nc(N3CCOC[C@H]3CO)nc3c2CCN3C2CC(F)(F)C2)cn1` [Example 3, {(3R)-4-[4-(2-aminopyrimidin-5-yl)-7-(3,3-difluorocyclobutyl)-6,7-dihydro-5H-pyrrolo[2,3-d]pyrimidin-2-yl]morpholin-3-yl}methanol] reads 118.146 nM. In the case of `CC(C)(N)C(=O)N1CC[C@](C)(N2CCc3c(-c4cnc(N)nc4)nc(N4CCOCC4)nc32)C1` [Example 4, 2-amino-1-{(3S)-3-[4-(2-aminopyrimidin-5-yl)-2-(morpholin-4-yl)-5,6-dihydro-7H-pyrrolo[2,3-d]pyrimidin-7-yl]-3-methylpyrrolidin-1-yl}-2-methylpropan-1-one], the “PI3KA_Act Ki” value worked out at 0.023 nM. As for `C[C@H]1COCCN1c1nc(-c2cnc(N)nc2)c2c(n1)N([C@@]1(C)CCN(C(=O)C(C)(C)N)C1)CC2` [Example 5, 2-amino-1-[(3S)-3-{4-(2-aminopyrimidin-5-yl)-2-[(3S)-3-methylmorpholin-4-yl]-5,6-dihydro-7H-pyrrolo[2,3-d]pyrimidin-7-yl}-3-methylpyrrolidin-1-yl]-2-methylpropan-1-one], the “PI3KA_Act Ki” value amounted to 0.024 nM. Compound `C[C@]1(N2CCc3c(-c4cnc(N)nc4)nc(N4CCOCC4)nc32)CCN(C2CCNC2=O)C1` (stereo partly drawn) [Example 6, (3S)-3-[4-(2-aminopyrimidin-5-yl)-2-(morpholin-4-yl)-5,6-dihydro-7H-pyrrolo[2,3-d]pyrimidin-7-yl]-3-methyl-1,3′-bipyrrolidin-2′-one] came in with a Ki of 0.096 nM. In the case of `CC1(C)CN=C(N2CC[C@](C)(N3CCc4c(-c5cnc(N)nc5)nc(N5CCOCC5)nc43)C2)O1` [Example 8, 5-{7-[(3S)-1-(5,5-dimethyl-4,5-dihydro-1,3-oxazol-2-yl)-3-methylpyrrolidin-3-yl]-2-(morpholin-4-yl)-6,7-dihydro-5H-pyrrolo[2,3-d]pyrimidin-4-yl}pyrimidin-2-amine], the “PI3KA_Act Ki” value was determined as 0.019 nM.

For the compound `CC1(C)COC(N2CC[C@](C)(N3CCc4c(-c5cnc(N)nc5)nc(N5CCOCC5)nc43)C2)=N1` [Example 9, 5-{7-[(3S)-1-(4,4-dimethyl-4,5-dihydro-1,3-oxazol-2-yl)-3-methylpyrrolidin-3-yl]-2-(morpholin-4-yl)-6,7-dihydro-5H-pyrrolo[2,3-d]pyrimidin-4-yl}pyrimidin-2-amine], the “PI3KA_Act Ki” value was <0.018 nM. For `[2H]C1([2H])OC([2H])([2H])C([2H])([2H])N(c2nc(-c3cnc(N)nc3)c3c(n2)N([C@@]2(C)CCN(C(=O)C(C)(C)N)C2)CC3)C1([2H])[2H]` [Example 10, (S)-2-amino-1-(3-(4-(2-aminopyrimidin-5-yl)-2-morpholino-d8)-5,6-dihydro-7H-pyrrolo[2,3-d]pyrimidin-7-yl)-3-methylpyrrolidin-1-yl)-2-methylpropan-1-one hydrochloride], the inhibition constant (Ki) is < 0.018 nM. Regarding `C[C@H]1COCCN1c1nc(-c2cnc(N)nc2)c2c(n1)N([C@H]1CCN(C(=O)NC(C)(C)C)C1)CC2` [Example 140], the “PI3KA_Act Ki” value stood at 0.318 nM. The same measure, in the same setting: to `C[C@H]1COCCN1c1nc(-c2cnc(N)nc2)c2c(n1)N(C1CN(C(=O)OC(C)(C)C)C1)CC2` [Example 141] belongs 0.471 nM; to `CNC(=O)COC(=O)N1CC(N2CCc3c(-c4cnc(N)nc4)nc(N4CCOCC4)nc32)C1` [Example 142], 0.159 nM. On the same count and under the same terms, to `CNC(=O)COC(=O)N1CC(N2CCc3c(-c4cnc(N)nc4)nc(N4CCOC[C@@H]4C)nc32)C1` [Example 143] belongs 0.262 nM; to `CNS(=O)(=O)N1CC[C@H](N2CCc3c(-c4cnc(N)nc4)nc(N4CCOC[C@H]4C)nc32)C1` [Example 144], 3.251 nM. The same measure, in the same setting: the result for `C[C@@H]1COCCN1c1nc(-c2cnc(N)nc2)c2c(n1)N([C@H]1CCN(S(C)(=O)=O)C1)CC2` [Example 145] reads 4.011 nM; that for `CNS(=O)(=O)N1CC(N2CCc3c(-c4cnc(N)nc4)nc(N4CCOCC4)nc32)C1` [Example 147], 0.064 nM. With `CNS(=O)(=O)NCCOC(=O)N1CC(N2CCc3c(-c4cnc(N)nc4)nc(N4CCOCC4)nc32)C1` [Example 148], the “PI3KA_Act Ki” value is 0.094 nM. Regarding `C[C@]1(N2CCc3c(-c4cnc(N)nc4)nc(N4CCOCC4)nc32)CCN(S(C)(=O)=O)C1` [Example 149], the “PI3KA_Act Ki” value came out at 0.027 nM. For `C[C@@]1(N2CCc3c(-c4cnc(N)nc4)nc(N4CCOCC4)nc32)CCN(S(C)(=O)=O)C1` [Example 150], the “PI3KA_Act Ki” value is listed as 0.044 nM. For the compound `CN(C)C(=O)COC(=O)N1CC(N2CCc3c(-c4cnc(N)nc4)nc(N4CCOCC4)nc32)C1` [Example 151], the “PI3KA_Act Ki” value was 0.107 nM.
